The record followed here is publication PMC5658702, “Lysine acetylome profiling uncovers novel histone deacetylase substrate proteins in Arabidopsis” (Molecular Systems Biology, 2017).

Holding throughout (format): biochemical
Experiment [1] concerns the target T1, RCA-β1 (RCAβ1; 6x-HisRCAβ1) (Arabidopsis thaliana, UniProt F4IVZ7, K438R).
T1 construct: N-terminal 6xHis tag, pCDFDuet-1, E. coli Rosetta-gami
T1 sequence (F4IVZ7 59-441 K438R): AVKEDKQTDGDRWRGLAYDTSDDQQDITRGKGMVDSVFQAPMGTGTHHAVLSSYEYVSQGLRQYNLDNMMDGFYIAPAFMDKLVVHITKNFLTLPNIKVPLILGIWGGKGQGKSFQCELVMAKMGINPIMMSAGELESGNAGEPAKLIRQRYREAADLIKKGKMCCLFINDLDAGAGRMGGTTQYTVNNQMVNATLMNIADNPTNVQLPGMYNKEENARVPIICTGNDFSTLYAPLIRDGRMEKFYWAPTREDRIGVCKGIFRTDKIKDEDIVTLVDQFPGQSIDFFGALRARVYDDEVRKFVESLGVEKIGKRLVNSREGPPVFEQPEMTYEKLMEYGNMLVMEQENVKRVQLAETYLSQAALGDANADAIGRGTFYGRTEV
In words: ATPase activity, KinaseGlo Max luminescent ATP consumption assay. The settings on record: read-out: % inhibition at 55 uM ADP. In general terms: In Kinase-Glo more light means more ATP remaining.

For experiment [2], the target named is T2, RCA-β1 (RCAβ1; 6x-HisRCAβ1) (Arabidopsis thaliana, UniProt F4IVZ7).
T2 construct: N-terminal 6xHis tag, pCDFDuet-1, E. coli Rosetta-gami
T2 sequence (F4IVZ7 59-441): T1 sequence (F4IVZ7 59-441 K438R) with R380K
The description is as above. The conditions noted are these: read-out: % inhibition at 55 uM ADP.

Experiment [3] has as its target T3, RCA-β1 (RCAβ1; 6x-HisRCAβ1) (Arabidopsis thaliana, UniProt F4IVZ7, K438Q).
T3 construct: N-terminal 6xHis tag, pCDFDuet-1, E. coli Rosetta-gami
T3 sequence (F4IVZ7 59-441 K438Q): T1 sequence (F4IVZ7 59-441 K438R) with R380Q
The experiment is described as above. The settings on record: read-out: % inhibition at 55 uM ADP.

The next experiment has as its target T4, HDA14 (6xHis-HDA14) (Arabidopsis thaliana, UniProt Q941D6).
T4 construct: lacks first 45 aa (predicted signal peptide); N-terminal 6xHis tag (pEXP-5-NT/TOPO); E. coli BL21(DE3); apoenzyme reloaded with Zn2+ or Co2+
T4 sequence (Q941D6 46-423): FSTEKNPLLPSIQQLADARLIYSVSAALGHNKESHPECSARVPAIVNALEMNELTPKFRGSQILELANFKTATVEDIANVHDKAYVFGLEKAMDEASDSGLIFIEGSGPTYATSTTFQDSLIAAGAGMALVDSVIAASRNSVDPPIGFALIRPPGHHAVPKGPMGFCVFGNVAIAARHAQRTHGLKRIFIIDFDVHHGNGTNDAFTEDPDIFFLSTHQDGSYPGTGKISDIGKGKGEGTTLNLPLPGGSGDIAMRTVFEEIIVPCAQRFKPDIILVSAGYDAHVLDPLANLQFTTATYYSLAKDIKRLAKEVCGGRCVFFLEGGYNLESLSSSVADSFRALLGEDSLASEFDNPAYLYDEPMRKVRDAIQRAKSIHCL
In words: colorimetric deacetylase assay, acetylated p53 peptide p53-5,2-ANB, trypsin-coupled, […] nm.

Where a chain is given by its changes, count along the chain named.

The term inhibition denotes the share of the control response that was lost under treatment. Regarding `Nc1ncnc2c1ncn2[C@@H]1O[C@H](COP(=O)(O)OP(=O)(O)O)[C@@H](O)[C@H]1O` [ADP], the results for the inhibition at 55 µM in experiment [1], in experiment [2] and in experiment [3] were around 30%, around 19% and around 8%, respectively.

As for `CC(/C=C/C(=O)NO)=C\[C@@H](C)C(=O)c1ccc(N(C)C)cc1` [trichostatin A], at 5 µM the inhibition on HDA14 (6xHis-HDA14) was 80%.
